How the values were obtained:
NUAK1(h) enzyme = target: T1, NUAK1(h) enzyme (Homo sapiens, UniProt O60285); assay: In vitro NUAK1 enzymatic assay (Eurofins Discovery, [γ-33P]-ATP filter assay); assay type: biochemical; details: 45 μM ATP, 40 min, room temperature; read-out: IC50, inhibitory effect on NUAK1 enzyme activity
T1 construct: purchased Eurofins Discovery
T1 sequence (O60285 1-661): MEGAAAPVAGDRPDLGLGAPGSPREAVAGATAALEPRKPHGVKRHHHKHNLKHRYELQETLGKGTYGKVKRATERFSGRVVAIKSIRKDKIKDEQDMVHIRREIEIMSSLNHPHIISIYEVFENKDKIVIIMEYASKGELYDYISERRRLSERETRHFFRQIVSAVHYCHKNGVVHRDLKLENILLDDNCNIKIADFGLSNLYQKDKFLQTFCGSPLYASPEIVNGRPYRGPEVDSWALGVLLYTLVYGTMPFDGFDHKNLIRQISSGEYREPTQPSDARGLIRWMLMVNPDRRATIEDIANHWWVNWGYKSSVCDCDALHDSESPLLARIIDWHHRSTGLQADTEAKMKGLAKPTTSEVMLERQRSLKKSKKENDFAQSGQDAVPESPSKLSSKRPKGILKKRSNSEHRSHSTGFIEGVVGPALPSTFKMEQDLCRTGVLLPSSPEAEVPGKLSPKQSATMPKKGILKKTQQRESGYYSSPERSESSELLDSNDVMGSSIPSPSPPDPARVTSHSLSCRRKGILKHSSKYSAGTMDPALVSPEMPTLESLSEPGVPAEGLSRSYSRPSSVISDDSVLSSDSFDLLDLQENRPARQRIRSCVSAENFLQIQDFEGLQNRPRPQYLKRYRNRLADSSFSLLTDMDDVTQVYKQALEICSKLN
Procedure: In Vitro Assay to Determine the Inhibitory Effect of Compounds in the Patent on NUAK1 Enzymatic Activity
The in vitro NUAK1 enzymatic assay was carried out at Eurofins Discovery to evaluate the inhibitory effect of the compounds presented in the invention. The assay protocol is as follow: the compound to be tested was mixed with NUAK1(h) enzyme and 300 μM […] substrate in 8 mM MOPS (pH 7.0) buffer containing 0.2 mM EDTA and incubated at room temperature. A Mg/ATP mixture containing 10 mM magnesium acetate and 45 μM [y-33P]-ATP was added to start the reaction. After incubation for 40 min at room temperature, the reaction was terminated by adding 0.5% phosphoric acid. Then, 10 μL of the reaction mix was spotted onto a P30 filter paper followed with four times of wash with 0.425% phosphoric acid solution (4 min each time), and one time wash with methanol. The filter paper was air-dried and counted in a liquid scintillation counter. The values obtained were plotted against the drug concentration and the IC50 was calculated.
Table 1 summarizes the inhibitory effect (IC50) of compounds tested on the NUAK1 enzyme activity in the present invention. ++++ indicates IC50≤10 nM; […]; ++ indicates 100 nM<IC50≤1 μM; + indicates IC50>1 μM.

NUAK2(h) enzyme = target: T2, NUAK2(h) enzyme (Homo sapiens, UniProt Q9H093); assay: In vitro NUAK2 enzymatic assay (Eurofins Discovery, [γ-33P]-ATP filter assay); assay type: biochemical; details: 45 μM ATP, 40 min, room temperature; read-out: IC50, inhibitory effect on NUAK2 enzyme activity
T2 construct: purchased Eurofins Discovery
T2 sequence (Q9H093 1-628): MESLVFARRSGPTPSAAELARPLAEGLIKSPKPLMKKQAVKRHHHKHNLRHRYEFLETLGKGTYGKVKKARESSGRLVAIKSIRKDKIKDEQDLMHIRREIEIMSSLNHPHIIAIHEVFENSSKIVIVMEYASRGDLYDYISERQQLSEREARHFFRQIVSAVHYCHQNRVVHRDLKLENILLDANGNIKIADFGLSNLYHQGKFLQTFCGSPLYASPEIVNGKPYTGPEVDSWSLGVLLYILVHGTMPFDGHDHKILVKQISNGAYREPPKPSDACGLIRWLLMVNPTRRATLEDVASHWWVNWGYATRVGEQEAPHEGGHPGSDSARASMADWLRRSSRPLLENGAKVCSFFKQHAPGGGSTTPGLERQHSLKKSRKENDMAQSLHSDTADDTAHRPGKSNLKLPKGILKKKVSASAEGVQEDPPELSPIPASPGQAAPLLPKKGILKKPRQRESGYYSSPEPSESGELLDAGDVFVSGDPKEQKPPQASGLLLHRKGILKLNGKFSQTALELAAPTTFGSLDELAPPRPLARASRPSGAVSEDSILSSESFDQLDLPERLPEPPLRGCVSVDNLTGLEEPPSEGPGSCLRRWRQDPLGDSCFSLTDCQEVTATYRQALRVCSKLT
Procedure: In Vitro Assay to Determine the Inhibitory Effect of Compounds in the Patent on NUAK2 Enzymatic Activity
The in vitro NUAK2 enzymatic assay was carried out at Eurofins Discovery to evaluate the inhibitory effect of the compounds presented in the invention. The assay protocol is as follow: the compound to be tested was mixed with NUAK2(h) enzyme and 300 […] substrate in 8 mM MOPS (pH 7.0) buffer containing 0.2 mM EDTA. A Mg/ATP mixture containing 10 mM magnesium acetate and 45 μM [γ-33P]-ATP was added to start the reaction. After incubation for 40 min at room temperature, the reaction was terminated by adding 0.5% phosphoric acid. Then 10 μL of the reaction mix was spotted onto a P30 filter paper. The filter paper was washed four times with 0.425% phosphoric acid with 4 min for each wash, and one time with methanol. The filter paper was air-dried and counted in a liquid scintillation counter. The values obtained were plotted against the drug concentration and the IC50 was calculated.
Table 1 summarizes the inhibitory effect (IC50) of compounds on the NUAK2 enzyme activity in the present invention. ++++ indicates IC50≤10 nM; +++ indicates 10 nM<IC50≤100 nM; ++ indicates 100 nM<IC50≤1 μM; + indicates IC50>1 μM.

| Compound | IC50 (NUAK1(h) enzyme) [nM] | IC50 (NUAK2(h) enzyme) [nM] |
| --- | --- | --- |
| COc1cc(N2CCN(C)CC2)ccc1Nc1ncc2c(n1)N(C1CC1)C(=O)NC2 [Example 3] | 100 to 1000 | > 1000 |
| COc1cc(N2CCN(C)CC2)ccc1Nc1ncc2c(n1)N(C1CCCC1)C(=O)N(C)C2 [Example 4, 1-cyclopentyl-7-((2-methoxy-4-(4-methylpiperazin-1-yl)phenyl)amino)-3-methyl-3,4-dihydropyrimido[4,5-d]pyrimidin-2(1H)-one] | 100 to 1000 | 100 to 1000 |
| CCOc1cc(N2CCN(C)CC2)ccc1Nc1ncc2cnc(=O)n(C3CCCC3)c2n1 [Example 7, 1-cyclopentyl-7-((2-ethoxy-4-(4-methylpiperazin-1-yl)phenyl)amino)pyrimido[4,5-d]pyrimidin-2(1H)-one] | > 1000 | 100 to 1000 |
| CC(C)Oc1cc(N2CCN(C)CC2)ccc1Nc1ncc2cnc(=O)n(C3CCCC3)c2n1 [Example 8, 1-cyclopentyl-7-((2-isopropoxy-4-(4-methylpiperazin-1-yl)phenyl)amino)pyrimido[4,5-d]pyrimidin-2(1H)-one] | > 1000 | > 1000 |
| CN1CCN(c2ccc(Nc3ncc4cnc(=O)n(C5CCCC5)c4n3)c(OC(F)(F)F)c2)CC1 [Example 9, 1-cyclopentyl-7-((4-(4-methylpiperazin-1-yl)-2-(trifluoromethoxy)phenyl)amino)pyrimido[4,5-d]pyrimidin-2(1H)-one] | > 1000 | > 1000 |
| CN1CCN(c2ccc(Nc3ncc4cnc(=O)n(C5CCCC5)c4n3)c(Cl)c2)CC1 [Example 11, 7-((2-chloro-4-(4-methylpiperazin-1-yl)phenyl)amino)-1-cyclopentylpyrimido[4,5-d]pyrimidin-2(1H)-one] | 100 to 1000 | 100 to 1000 |
| CN1CCN(c2ccc(Nc3ncc4cnc(=O)n(C5CCCC5)c4n3)c(Br)c2)CC1 [Example 12, 7-((2-bromo-4-(4-methylpiperazin-1-yl)phenyl)amino)-1-cyclopentylpyrimido[4,5-d]pyrimidin-2(1H)-one] | 100 to 1000 | 100 to 1000 |
| COc1cc(N2CCN(C)CC2)ccc1Nc1nc(C)c2cnc(=O)n(C3CCCC3)c2n1 [Example 13, 1-cyclopentyl-7-((2-methoxy-4-(4-methylpiperazin-1-yl)phenyl)amino)-5-methylpyrimido[4,5-d]pyrimidin-2(1H)-one] | > 1000 | > 1000 |
| COc1cc(N2CCN(C)CC2)ccc1Nc1ncc2cnc(=O)n(C3CCC3)c2n1 [Example 14, 1-cyclobutyl-7-((2-methoxy-4-(4-methylpiperazin-1-yl)phenyl)amino)pyrimido[4,5-d]pyrimidin-2(1H)-one] | 100 to 1000 | 100 to 1000 |
| COc1cc(N2CCN(C)CC2)ccc1Nc1ncc2cnc(=O)n(C3CC3)c2n1 [Example 15, 1-cyclopropyl-7-((2-methoxy-4-(4-methylpiperazin-1-yl)phenyl)amino)pyrimido[4,5-d]pyrimidin-2(1H)-one] | 100 to 1000 | > 1000 |
| COc1cc(N2CCN(C)CC2)ccc1Nc1ncc2cnc(=O)n(C3CCOCC3)c2n1 [Example 16, 7-((2-methoxy-4-(4-methylpiperazin-1-yl)phenyl)amino)-1-(tetrahydro-2H-pyran-4-yl)pyrimido[4,5-d]pyrimidin-2(1H)-one] | > 1000 | 100 to 1000 |
| COc1cc(N2CCN(C)CC2)ccc1Nc1cc2c(cn1)cc(C#N)c(=O)n2C1CCCC1 [Example 25, 1-cyclopentyl-7-((2-methoxy-4-(4-methylpiperazin-1-yl)phenyl)amino)-2-oxo-1,2-dihydro-1,6-naphthyridine-3-carbonitrile] | > 1000 | 100 to 1000 |
| COc1cc(N2CCN(C)CC2)ccc1Nc1ncc2c(n1)N(C1CC1)C(=O)CC2 [Example 30] | 100 to 1000 | > 1000 |
| COc1cc(N2CCN(C)CC2)ccc1Nc1ncc2c(n1)N(C1CCCC1)C(=O)CO2 [Example 31, 8-cyclopentyl-2-((2-methoxy-4-(4-methylpiperazin-1-yl)phenyl)amino)-6H-pyrimido[5,4-b][1,4]oxazin-7(8H)-one] | 100 to 1000 | 100 to 1000 |
| COc1cc(N2CCN(C)CC2)ccc1Nc1ncc2c(n1)N(C1CCOCC1)C(=O)NC2 [Example 33, 7-((2-methoxy-4-(4-methylpiperazin-1-yl)phenyl)amino)-1-(tetrahydro-2H-pyran-4-yl)-3,4-dihydropyrimido[4,5-d]pyrimidin-2(1H)-one] | 100 to 1000 | 100 to 1000 |
| COc1cc(N2CCN(C)CC2)ccc1Nc1ncc2cncc(C3CCCC3)c2n1 [Example 34, 8-cyclopentyl-N-(2-methoxy-4-(4-methylpiperazin-1-yl)phenyl)pyrido[4,3-d]pyrimidin-2-amine] | 10 to 100 | 10 to 100 |
| COc1cc(N2CCN(C)CC2)ccc1Nc1ncc2cncc(C3=CCCC3)c2n1 [Example 35, 8-(cyclopent-1-en-1-yl)-N-(2-methoxy-4-(4-methylpiperazin-1-yl)phenyl)pyrido[4,3-d]pyrimidin-2-amine] | 10 to 100 | 10 to 100 |
| COc1cc(N2CCN(C)CC2)ccc1Nc1ncc2c(C)c(C(C)=O)c(=O)n(C3CCCC3)c2n1 [Example 36, 6-acetyl-8-cyclopentyl-2-((2-methoxy-4-(4-methylpiperazin-1-yl)phenyl)amino)-5-methylpyrido[2,3-d]pyrimidin-7(8H)-one] | > 1000 | 100 to 1000 |
| COc1cc(N2CCNCC2)ccc1Nc1ncc2c(C)c(C(C)=O)c(=O)n(C3CCCC3)c2n1 [Example 37, 6-acetyl-8-cyclopentyl-2-((2-methoxy-4-(piperazin-1-yl)phenyl)amino)-5-methylpyrido[2,3-d]pyrimidin-7(8H)-one] | > 1000 | 100 to 1000 |
| CCC(=O)Nc1cccc(Oc2nc(Nc3ccc(N4CCN(C)CC4)cc3OC)ncc2I)c1 [HTH-02-006, reference compound] | 10 to 100 | 100 to 1000 |
